According to patent publication EP0480258A2, “Use of substituted 2-mercapto-nicotinic acid derivatives for combat against endoparasites, novel substituted 2-mercaptonicotinir acid derivatives and processes for their preparation” (BAYER AG, priority 1990, dated 1992):

How the values were obtained:
Haemonchus contortus = assay: In vivo nematode test, Haemonchus contortus / sheep; conditions: experimentally infected sheep (Schaf), treated after the prepatent period, pure active compound in gelatin capsules, oral, dose giving complete cessation of egg excretion in faeces, read-out: Dosis effectiva
Description: Haemonchus contortus / Schaf
Experimentell mit Haemonchus contortus infizierte Schafe wurden nach Ablauf der Präpatenzzeit des Parasiten behandelt. Die Wirkstoffe wurden als reiner Wirkstoff in Gelatinekapseln oral appliziert.
Der Wirkungsgrad wird dadurch bestimmt, daß man die mit dem Kot ausgeschiedenen […] vor und nach der Behandlung quantitativ auszählt.
Ein völliges Sistieren der Eiausscheidung nach der Behandlung bedeutet, daß die Würmer abgetrieben wurden oder so geschädigt sind, daß sie keine Eier mehr produzeiren (Dosis effectiva).
Geprüfte Wirkstoffe und wirksame Dosierungen (Dosis effectiva) sind aus der nachfolgenden Tabelle ersichtlich: […]

[1] = system: Trichostrongylus colubriformis; assay: In vivo nematode test, Trichostrongylus colubriformis / sheep; conditions: experimentally infected sheep (Schaf), treated after the prepatent period, pure active compound in gelatin capsules, oral, dose giving complete cessation of egg excretion in faeces, read-out: Dosis effectiva
Description: Trichostrongylus colubriformis / Schaf
Experimentell mit Trichostrongylus colubriformis infizierte Schafe wurden nach Ablauf der Präpatenzzeit des Parasiten behandelt. Die Wirkstoffe wurden als reiner Wirkstoff in Gelatinekapseln oral appliziert.
Der Wirkungsgrad wird dadurch bestimmt, daß man die mit dem Kot ausgeschiedenen Wurmeier vor und nach der Behandlung quantitativ auszählt.
Ein völliges Sistieren der Eiausscheidung nach der Behandlung bedeutet, daß die Würmer abgetrieben wurden oder so geschädigt sind, daß sie keine Eier mehr produzieren (Dosis effectiva).
Geprüfte Wirkstoffe und wirksame Dosierungen (Dosis effectiva) sind aus der nachfolgenden Tabelle ersichtlich.

Row | Structure (SMILES) | minimal effective dose (Haemonchus contortus) [mg/kg] | minimal effective dose [1] [mg/kg]
1 | CSc1ncccc1C(=O)Nc1ccccc1 [Beispiel 1] | 10 | 
2 | CCCSc1ncccc1C(=O)Nc1ccccc1 [Beispiel 2] | 10 | 10
3 | C=CCSc1ncccc1C(=O)Nc1ccccc1 [Beispiel 3] |  | 10
4 | CCCSc1ncccc1C(=O)Nc1ccccc1Cl [Beispiel 6] | 5 | 
5 | CSc1ncccc1C(=O)Nc1ccc(Cl)cc1 [Beispiel 7] | 10 | 5
6 | CCCSc1ncccc1C(=O)Nc1ccc(Cl)cc1 [Beispiel 9] | 10 | 
7 | CCSc1ncccc1C(=O)Nc1ccc(Cl)cc1 [Beispiel 13] |  | 10
8 | CCSc1ncccc1C(=O)Nc1ccccc1 [Beispiel 24] | 10 | 
9 | CCCSc1ncccc1C(=O)Nc1ccc(SC(F)(F)F)cc1 [Beispiel 29] | 10 | 10
10 | CSc1ncccc1C(=O)Nc1ccc(Sc2ccc(Cl)cc2)cc1C(F)(F)F [Beispiel 87] |  | 10
